Laboratory results from US10905761B2, “Use of a lipopeptide or lipoprotein as an adjuvant in therapeutic or prophylactic vaccinations” (HELMHOLTZ-ZENTRUM FUER INFEKTIONSFORSCHUNG GMBH, priority 2002, dated 2021).
No end group written: not given here.

Legend:
[1] = system: primary dendritic cells from the bone marrow of BALB/c mice; experiment: In vitro stimulation of primary dendritic cells; […]; format: cell-based
BALB/c (H-2d) mice = experiment: β-Galactosidase-specific IgA in lung and vaginal lavages of mice immunized i.n. (Example 5); format: in vivo
Method: The results are shown as percentage of β-galactosidase-specific IgA in relation to the total IgA present. The SEM is indicated by vertical lines.
The mice were sacrificed on day 31, and the final samples were taken. Vaginal and lung lavages were obtained by rinsing the organs with 1 ml of PBS supplemented by 50 mM EDTA, 0.1% BSA and 10 mM PMSF. The lavages were then centrifuged in order to remove tissue detritus (10 min at 3000×g) and the remaining liquid was stored at −20° C. In order to determine the total IgA concentration in the rinsings from lung and vagina, serial dilutions of the corresponding samples were incubated in microtiter plates, these plates having previously been coated with goat anti-mouse IgA (Sigma Chemie) as capture antibody (100 μl/well). Serial dilutions of purified mouse IgA (Sigma Chemie) were used to produce a standard plot.

## S-[2,3-bispalmitoyloxypropyl]cysteinyl-GNNDESNISFKEK ({S‑(2,3-bispalmitoyloxypropyl)Cys}-GNNDESNISFKEK) [MALP-2]
[1]; 5 ng/ml MALP-2, 12 and 24 hours
  effect on expression of costimulating molecule CD80 in dendritic cells: slight, if present at all
[1]; 5 ng/ml MALP-2, 12 and 24 hours, versus LPS positive control
  expression of CD40 and costimulating molecule CD86 in dendritic cells: not increased
[1]; 5 ng/ml MALP-2, compared with LPS 10 ng/ml
  activation of primary dendritic cells: only a very weak activation
[1]; 10 ng/ml LPS or 5 ng/ml MALP-2
  up regulation of CD40, CD80 and CD86 in dendritic cells: only a weak effect, or none
BALB/c (H-2d) mice; 0.5 μg MALP-2 versus 10 μg CTB, i.n.
  levels of β-galactosidase-specific antibodies in the mucous membranes, MALP-2 versus CTB: No statistically significant differences
BALB/c (H-2d) mice; MALP-2 as adjuvant, i.n.
  antigen-specific IgA, based on the total IgA, in lung lavages: 36%
  antigen-specific IgA, based on the total IgA, in vaginal lavages: 23%
BALB/c (H-2d) mice; i.n. immunization, day 31
  β-galactosidase-specific IgA in lung rinsings: significant increase
  β-galactosidase-specific IgA in vaginal rinsings: significant concentrations
